In PubChem BioAssay AID2060345 (Molecular Pharmacology Branch, DTP, NCI, 2025):

Tested on: MALME-3M multicell spheroids, viability
Assay: Anticancer human tumor MALME-3M cell line growth inhibition [TAK];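 further: spheroids exposed to drugs for seven days before readout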
Conditions: for IC50: curve of first compound; for viability, T/C: stronger effect = lower value; active means viability on the fitted dose curve at most 10% of control; inactive means the rest
Description: Combinatorial screen of targeted agents with TAK-243 and ipatasertib in multi-cell type tumor spheroids
A high-throughput screen of multi-cell type tumor spheroids was designed to identify active combinations of targeted small molecules and TAK-243 or ipatasertib. Complex spheroids include a stromal component modeled by human endothelial cells (HUVEC) and fibroblasts modeled by human mesenchymal stem cells (MSCs). The concentration ranges selected for each drug and investigational agent were based upon clinically achievable concentrations if the clinical Cmax of the agent was known.
Compounds. The drugs and investigational agents: TAK-243 (785004), ipatasertib (767898), everolimus (733504), selumetinib (741078), bortezomib (756655), trametinib (758246), ixazomib (758254), vemurafenib (761431), dabrafenib (764134), sapanisertib (764658), alpelisib (765974), and copanlisib (816437), were obtained from the National Cancer Institute (NCI) Developmental Therapeutics Program Chemical Repository. The FDA-approved anticancer drug set is available from the NCI Developmental Therapeutics Program. […] The stock solutions were prepared in dimethyl sulfoxide (DMSO, Sigma-Aldrich, St. Louis, MO, cat. D2650) at 800-fold the tested concentration and stored at -70 degrees C prior to their use. All drugs and investigational agents were tested over a range starting from a high concentration at or near the clinical Cmax and decreasing in half-log increments. If the clinical Cmax for an agent had not been determined, the highest concentration tested was 10 microM.
NCI60 Cell Culture. NCI60 cell lines were obtained from the NCI Developmental Therapeutics Program Tumor Repository. For each lot of cells, the Repository performed Applied Biosystems AmpFLSTR Identifiler testing with PCR amplification to confirm consistency with the published Identifier STR profile for each cell line. Cells were kept in continuous culture for no more than 20 passages. The optimal seeding densities for each of the cell lines at each time point assessed were determined prior to performing the concentration response studies. Briefly, the NCI60 human tumor lines were grown as monolayers in RPMI 1640 medium supplemented with 10% FBS and 2 mmol/L L-glutamine.
An additional 2 lines were from the NCI60 cell line panel including melanomas, MALME-3M and SK-MEL-2. Pooled donor human umbilical vein endothelial cells (HUVEC, Lonza, cat. CC-2519) and human mesenchymal stem cells (hMSC, Lonza, cat. PT-2501) were purchased from Lonza (Walkersville, MD).
PDMR cell lines were grown in complete medium (DC medium): Dulbecco's modified Eagle's medium (DMEM)/F12 supplemented with 5% fetal bovine serum (FBS), 2 mM L-glutamine, 100 U/mL penicillin and 100 µg/ml streptomycin, 0.4 µg/ml hydrocortisone, 10 ng/ml epidermal growth factor (EGF) recombinant human protein, 24 µg/mL adenine, and 0.1 mg/mL primocin. During culture from frozen stock vials, PDMR cells were cultured in the same medium containing 10 µM Y-27632 (see Table 3). The PDCs were cultured in complete DMEM/F12 media without 10 microM Y-27632 dihydrochloride for at least two passages prior to the screen. The pooled donor HUVEC and hMSC were cultured in endothelial cell growth medium 2 (PromoCell, Heidelberg, Germany, cat. C-22011) and mesenchymal stem cell growth medium 2 (PromoCell, cat. C-28009), respectively. For all experiments, HUVEC and hMSC were used at passages </=5.
For the pre-screen, cell seeding densities were determined from a titration spanning the range from 5,000 to 313 cells per well. The mct-spheroids including 60% malignant cells, 25% HUVEC and 15% MSC dispensed as a mixture into U-bottom Ultra-Low Attachment 384-well plates (Corning, NY)
High-throughput Drug Combination Screening.
Prior to their inoculation into 384-well plates, malignant cells, HUVEC, and hMSC were removed from T flasks using TrypLE express (Thermo Fisher Scientific, cat. 12605036) and harvested by centrifugation for 5 min at 233 x g. […]

[1] = second compound 0.3 µM, first compound 0.0316 µM
[2] = second compound 0.3 µM, first compound 0.1 µM
[3] = second compound 0.949 µM, first compound 0.0316 µM
[4] = second compound 0.949 µM, first compound 0.1 µM
[5] = second compound 3 µM, first compound 0.0316 µM
[6] = second compound 3 µM, first compound 0.1 µM
[7] = second compound 9.49 µM, first compound 0.0316 µM
[8] = second compound 9.49 µM, first compound 0.1 µM
[9] = second compound 30 µM, first compound 0.0316 µM
[10] = second compound 30 µM, first compound 0.1 µM

CC(C)(C)c1nc(-c2cccc(NS(=O)(=O)c3c(F)cccc3F)c2F)c(-c2ccnc(N)n2)s1 + CC(C)NCC(C(=O)N1CCN(c2ncnc3c2C(C)CC3O)CC1)c1ccc(Cl)cc1
< 31.6 nM: IC50 (second compound 0.3 µM) | IC50 (second compound 0.949 µM) | IC50 (second compound 3 µM) | IC50 (second compound 9.49 µM) | IC50 (second compound 30 µM)
inactive: viability, T/C [1] 26.6% | viability, T/C [2] 23.6% | viability, T/C (second compound 0.3 µM, first compound 0.316 µM) 25% | viability, T/C (second compound 0.3 µM, first compound 1 µM) 25.8% | viability, T/C (second compound 0.3 µM, first compound 3.16 µM) 22.2% | viability, T/C (second compound 0.3 µM, first compound 10 µM) 29.6% | viability, T/C [3] 27.1% | viability, T/C [4] 26.2% | viability, T/C (second compound 0.949 µM, first compound 0.316 µM) 23.2% | viability, T/C (second compound 0.949 µM, first compound 1 µM) 24.8% | viability, T/C (second compound 0.949 µM, first compound 3.16 µM) 20.6% | viability, T/C (second compound 0.949 µM, first compound 10 µM) 26.2% | viability, T/C [5] 25.4% | viability, T/C [6] 26.8% | viability, T/C (second compound 3 µM, first compound 0.316 µM) 21.3% | viability, T/C (second compound 3 µM, first compound 1 µM) 20.1% | viability, T/C (second compound 3 µM, first compound 3.16 µM) 15.4% | viability, T/C (second compound 3 µM, first compound 10 µM) 21.5% | viability, T/C [7] 23% | viability, T/C [8] 21% | viability, T/C (second compound 9.49 µM, first compound 0.316 µM) 19.5% | viability, T/C (second compound 9.49 µM, first compound 1 µM) 15.6% | viability, T/C (second compound 9.49 µM, first compound 3.16 µM) 14.1% | viability, T/C (second compound 9.49 µM, first compound 10 µM) 17.1% | viability, T/C [9] 17.1% | viability, T/C [10] 18.4% | viability, T/C (second compound 30 µM, first compound 0.316 µM) 18.5% | viability, T/C (second compound 30 µM, first compound 1 µM) 11.4% | viability, T/C (second compound 30 µM, first compound 3.16 µM) 8.12%
active: viability, T/C (second compound 30 µM, first compound 10 µM) 11.6%

CC(C)CC(NC(=O)CNC(=O)c1cc(Cl)ccc1Cl)B1OC(=O)CC(CC(=O)O)(C(=O)O)O1 (stereo not given) + CC(C)NCC(C(=O)N1CCN(c2ncnc3c2C(C)CC3O)CC1)c1ccc(Cl)cc1
11.8 nM: IC50 (second compound 9.49 µM)
9.34 nM: IC50 (second compound 3 µM)
inactive: viability, T/C (second compound 0.3 µM, first compound 0.000316 µM) 109% | viability, T/C (second compound 0.3 µM, first compound 0.001 µM) 97.2% | viability, T/C (second compound 0.3 µM, first compound 0.00316 µM) 90.6% | viability, T/C (second compound 0.3 µM, first compound 0.01 µM) 82.6% | viability, T/C [1] 10.4% | viability, T/C (second compound 0.949 µM, first compound 0.000316 µM) 92.4% | viability, T/C (second compound 0.949 µM, first compound 0.001 µM) 89% | viability, T/C (second compound 0.949 µM, first compound 0.00316 µM) 95.4% | viability, T/C (second compound 0.949 µM, first compound 0.01 µM) 87.2% | viability, T/C [3] 10.7% | viability, T/C (second compound 3 µM, first compound 0.000316 µM) 90.5% | viability, T/C (second compound 3 µM, first compound 0.001 µM) 77% | viability, T/C (second compound 3 µM, first compound 0.00316 µM) 77.5% | viability, T/C (second compound 3 µM, first compound 0.01 µM) 49.1% | viability, T/C (second compound 9.49 µM, first compound 0.000316 µM) 70.9% | viability, T/C (second compound 9.49 µM, first compound 0.001 µM) 68% | viability, T/C (second compound 9.49 µM, first compound 0.00316 µM) 64.8% | viability, T/C (second compound 9.49 µM, first compound 0.01 µM) 57.6% | viability, T/C (second compound 30 µM, first compound 0.000316 µM) 48.2% | viability, T/C (second compound 30 µM, first compound 0.001 µM) 49.8% | viability, T/C (second compound 30 µM, first compound 0.00316 µM) 45.2% | viability, T/C (second compound 30 µM, first compound 0.01 µM) 30.9%
17.5 nM: IC50 (second compound 0.949 µM)
active: viability, T/C [2] 0.25% | viability, T/C [4] 0.17% | viability, T/C [5] 6.98% | viability, T/C [6] 0.17% | viability, T/C [7] 5.18% | viability, T/C [8] 0.17% | viability, T/C [9] 4.73% | viability, T/C [10] 0.24%
< 0.316 nM: IC50 (second compound 30 µM)
16.8 nM: IC50 (second compound 0.3 µM)
